The values that follow come from US10646488B2 (Araxes Pharma LLC, priority 2016, dated 2020).

This experiment deals with T1, KRAS G12C 1-169, his-tagged protein, GDP-loaded (Homo sapiens, UniProt P01116, G12C).
T1 construct: KRAS G12C 1-169, his-tagged protein, GDP-loaded
The experiment is described as follows: Covalent binding (% modification) to KRAS G12C by mass spectrometry. Further: test concentration or dose not given here.

Where [1] appears, read: covalent binding to KRAS G12C after a ten minute incubation period.

The structures appear in SMILES notation.

`C=CC(=O)N1C[C@H](C)N(c2nc(OCCN(CC)CC)nc3c(F)c(-c4c(O)cccc4F)c(Cl)cc23)C[C@H]1C` [Compound 48, 1-((2R,5S)-4-(6-chloro-2-(2-(diethylamino)ethoxy)-8-fluoro-7-(2-fluoro-6-hydroxyphenyl)quinazolin-4-yl)-2,5-dimethyl-piperazin-1-yl) prop-2-en-1-one]: the Binding % entry under setting [1] is “++ (++ indicates binding activity from 50 to 90%)”. Still for that read-out and setting: the entry for `C=CC(=O)N1C[C@@H](C)N(c2nc(OCCc3ccccn3)nc3c(F)c(-c4c(O)cccc4F)c(Cl)cc23)[C@@H](C)C1` [Compound 49, 1-((3S,5R)-4-(6-chloro-8-fluoro-7-(2-fluoro-6-hydroxyphenyl)-2-(2-(pyridin-2-yl)ethoxy)quinazolin-4-yl)-3,5-dimethyl-piperazin-1-yl) prop-2-en-1-one] is “++ (++ indicates binding activity from 50 to 90%)”; for `C=CC(=O)N1C[C@H](C)N(c2nc(NC3CCN(C4CC4)CC3)nc3c(F)c(-c4c(C)ccc5[nH]ncc45)c(Cl)cc23)C[C@H]1C` [Compound 50, 1-((2R,5S)-4-(6-chloro-2-((1-cyclopropyl-piperidin-4-yl)amino)-8-fluoro-7-(5-methyl-1H-indazol-4-yl)quinazolin-4-yl)-2,5-dimethyl-piperazin-1-yl) prop-2-en-1-one] it is “++ (++ indicates binding activity from 50 to 90%)”. For `C=CC(=O)N1C[C@H](C)N(c2nc(O)nc3c(F)c(-c4c(O)cccc4F)c(Cl)cc23)C[C@H]1C` [Compound 51, 1-((2R,5S)-4-(6-chloro-8-fluoro-7-(2-fluoro-6-hydroxyphenyl)-2-hydroxy-quinazolin-4-yl)-2,5-dimethyl-piperazin-1-yl) prop-2-en-1-one], the Binding % result under setting [1] was “+ (+ indicates binding activity up to 50%)”. Same read-out and setting: the entry for `C=CC(=O)N1C[C@H](C)N(c2nc(N3CC(N(C)C)C3)nc3c(F)c(-c4c(C)ccc5[nH]ncc45)c(Cl)cc23)C[C@H]1C` [Compound 54, 1-((2R,5S)-4-(6-chloro-2-(3-(dimethylamino)azetidin-1-yl)-8-fluoro-7-(5-methyl-1H-indazol-4-yl)quinazolin-4-yl)-2,5-dimethyl-piperazin-1-yl) prop-2-en-1-one] is “+++ (+++ indicates binding activity greater than 90%)”; for `C=CC(=O)N1C[C@H](C)N(c2nc(OCCN3CC(F)(F)C3)nc3c(F)c(-c4c(C)ccc5[nH]ncc45)c(Cl)cc23)C[C@H]1C` [Compound 55, 1-((2R,5S)-4-(6-chloro-2-(2-(3,3-difluoroazetidin-1-yl)ethoxy)-8-fluoro-7-(5-methyl-1H-indazol-4-yl)quinazolin-4-yl)-2,5-dimethyl-piperazin-1-yl) prop-2-en-1-one] it is “+++ (+++ indicates binding activity greater than 90%)”; for `C=CC(=O)N1CCN(c2nc(N3CC(N(C)C)C3)nc3c(F)c(-c4c(O)cccc4F)c(Cl)cc23)C[C@H]1C` [Compound 56, 1-((2R)-4-(6-chloro-2-(3-(dimethylamino)azetidin-1-yl)-8-fluoro-7-(2-fluoro-6-hydroxyphenyl)quinazolin-4-yl)-2-methylpiperazin-1-yl)prop-2-en-1-one] it is “+++ (+++ indicates binding activity greater than 90%)”. As for `C=CC(=O)N1CCN(c2nc(OCCN3CC(F)(F)C3)nc3c(F)c(-c4c(O)cccc4F)c(Cl)cc23)C[C@H]1C` [Compound 57, 1-((2R)-4-(6-chloro-2-(2-(3,3-difluoroazetidin-1-yl)ethoxy)-8-fluoro-7-(2-fluoro-6-hydroxyphenyl)quinazolin-4-yl)-2-methyl-piperazin-1-yl) prop-2-en-1-one], under setting [1], the Binding % entry is “+++ (+++ indicates binding activity greater than 90%)”.

Turning to `C=CC(=O)N1C[C@@H](C)N(c2nc(N3CC(CO)C3)nc3c(F)c(-c4c(O)cccc4F)c(Cl)cc23)[C@@H](C)C1` [Compound 64, 1-((3R,5S)-4-(6-chloro-8-fluoro-7-(2-fluoro-6-hydroxyphenyl)-2-(3-(hydroxy-methyl)azetidin-1-yl)quinazolin-4-yl)-3,5-dimethyl-piperazin-1-yl) prop-2-en-1-one], the Binding % result under setting [1] is listed as “++ (++ indicates binding activity from 50 to 90%)”. The same measure, in the same setting: the value for `C=CC(=O)N1C[C@H](C)N(c2nc(OCCc3ccccn3)nc3c(F)c(-c4c(O)cccc4F)c(Cl)cc23)C[C@H]1C` [Compound 65, 1-((2R,5S)-4-(6-chloro-8-fluoro-7-(2-fluoro-6-hydroxyphenyl)-2-(2-(pyridin-2-yl)ethoxy)quinazolin-4-yl)-2,5-dimethyl-piperazin-1-yl) prop-2-en-1-one] was “+++ (+++ indicates binding activity greater than 90%)”; that for `C=CC(=O)N1C[C@@H](C)N(c2nc(N3CC(O)C3)nc3c(F)c(-c4c(O)cccc4F)c(Cl)cc23)[C@@H](C)C1` [Compound 66, 1-((3R,5S)-4-(6-chloro-8-fluoro-7-(2-fluoro-6-hydroxyphenyl)-2-(3-hydroxyazetidin-1-yl)quinazolin-4-yl)-3,5-dimethyl-piperazin-1-yl) prop-2-en-1-one] was “+++ (+++ indicates binding activity greater than 90%)”; that for `C=CC(=O)N1[C@H](C)CN(c2nc(N3CC(N(C)C)C3)nc3c(F)c(-c4c(O)cccc4F)c(Cl)cc23)C[C@@H]1C` [Compound 67, 1-((2R,6S)-4-((S)-6-chloro-2-(3-(dimethylamino)azetidin-1-yl)-8-fluoro-7-(2-fluoro-6-hydroxyphenyl)quinazolin-4-yl)-2,6-dimethyl-piperazin-1-yl) prop-2-en-1-one] was “+ (+ indicates binding activity up to 50%)”. In the case of `C=CC(=O)N1[C@H](C)CN(c2nc(N3CC(N(C)C)C3)nc3c(F)c(-c4c(O)cccc4F)c(Cl)cc23)C[C@@H]1C` [Compound 68, 1-((2R,6S)-4-((R)-6-chloro-2-(3-(dimethylamino)azetidin-1-yl)-8-fluoro-7-(2-fluoro-6-hydroxyphenyl)quinazolin-4-yl)-2,6-dimethyl-piperazin-1-yl) prop-2-en-1-one], the Binding % entry under setting [1] was “+++ (+++ indicates binding activity greater than 90%)”. Same read-out and setting: the entry for `C=CC(=O)N1CCN(c2nc(N3CC(N(C)C)C3)nc3c(F)c(-c4c(C)ccc5cn[nH]c45)c(Cl)cc23)C[C@H]1C` [Compound 69, 1-((2R)-4-(6-chloro-2-(3-(dimethylamino)azetidin-1-yl)-8-fluoro-7-(6-methyl-1H-indazol-7-yl)quinazolin-4-yl)-2-methyl-piperazin-1-yl) prop-2-en-1-one] is “+++ (+++ indicates binding activity greater than 90%)”; for `C=CC(=O)N1CCN(c2c(C#N)c(N3CC(N(C)C)C3)nc3c(F)c(-c4c(O)cccc4F)c(Cl)cc23)C[C@H]1C` [Compound 76] it is “+ (+ indicates binding activity up to 50%)”. As to `C=CC(=O)N1C[C@H](C)N(c2nc(OCCN(CC)CC)nc3c(F)c(-c4c(C)ccc5[nH]ncc45)c(Cl)cc23)C[C@H]1C` [Compound 77, 1-((2R,5S)-4-(6-chloro-2-(2-(diethylamino)ethoxy)-8-fluoro-7-(5-methyl-1H-indazol-4-yl)quinazolin-4-yl)-2,5-dimethyl-piperazin-1-yl) prop-2-en-1-one], the Binding % result under setting [1] was “+++ (+++ indicates binding activity greater than 90%)”. Regarding `C=CC(=O)N1C[C@H](C)N(c2nc(OC3CCN(C4CC4)CC3)nc3c(F)c(-c4c(C)ccc5[nH]ncc45)c(Cl)cc23)C[C@H]1C` [Compound 78, 1-((2R,5S)-4-(6-chloro-2-((1-cyclopropyl-piperidin-4-yl)oxy)-8-fluoro-7-(5-methyl-1H-indazol-4-yl)quinazolin-4-yl)-2,5-dimethyl-piperazin-1-yl) prop-2-en-1-one], under setting [1], the Binding % result is reported as “++ (++ indicates binding activity from 50 to 90%)”.

For `C=CC(=O)N1C[C@H](C)N(c2nc(OC3CCN(C(C)C)CC3)nc3c(F)c(-c4c(C)ccc5[nH]ncc45)c(Cl)cc23)C[C@H]1C` [Compound 79, 1-((2R,5S)-4-(6-chloro-8-fluoro-2-((1-isopropyl-piperidin-4-yl)oxy)-7-(5-methyl-1H-indazol-4-yl)quinazolin-4-yl)-2,5-dimethyl-piperazin-1-yl) prop-2-en-1-one], the Binding % result under setting [1] was “+++ (+++ indicates binding activity greater than 90%)”. On the same count and under the same terms, the value for `C=CC(=O)N1C[C@@H](C)N(c2nc(N3CC(N(C)C)C3)nc3c(F)c(-c4c(O)cccc4F)c(Cl)cc23)C[C@H]1C` [Compound 80, 1-((2R,5R)-4-(6-chloro-2-(3-(dimethylamino)azetidin-1-yl)-8-fluoro-7-(2-fluoro-6-hydroxyphenyl)quinazolin-4-yl)-2,5-dimethyl-piperazin-1-yl) prop-2-en-1-one] was “+ (+ indicates binding activity up to 50%)”; that for `C=CC(=O)N1C[C@@H](C)N(c2nc(N3CC(N(C)C)C3)nc3c(F)c(-c4c(O)cccc4F)c(Cl)cc23)C[C@@H]1C` [Compound 81, 1-((2S,5R)-4-(6-chloro-2-(3-(dimethylamino)azetidin-1-yl)-8-fluoro-7-(2-fluoro-6-hydroxyphenyl)quinazolin-4-yl)-2,5-dimethyl-piperazin-1-yl) prop-2-en-1-one] was “+ (+ indicates binding activity up to 50%)”; that for `C=CC(=O)N1CCN(c2nc(N3CC(N(C)C)C3)nc3c(F)c(-c4c(O)cccc4F)c(Cl)cc23)C[C@@H]1C` [Compound 82, 1-((2S)-4-(6-chloro-2-(3-(dimethylamino)azetidin-1-yl)-8-fluoro-7-(2-fluoro-6-hydroxyphenyl)quinazolin-4-yl)-2-methyl-piperazin-1-yl) prop-2-en-1-one] was “++ (++ indicates binding activity from 50 to 90%)”.

In the case of `C=CC(=O)N1CCN(c2nc(OCCN(CC)CC)nc3c(F)c(-c4c(O)cccc4F)c(Cl)cc23)C[C@H]1C` [Compound 85, 1-((2R)-4-(6-chloro-2-(2-(diethylamino)ethoxy)-8-fluoro-7-(2-fluoro-6-hydroxyphenyl)quinazolin-4-yl)-2-methyl-piperazin-1-yl) prop-2-en-1-one], the Binding % entry (covalent binding to KRAS G12C after a three minute incubation period) is recorded as “++ (++ indicates binding activity from 50 to 90%)”.
